These compounds were tested against T1, INaL v1.6 (late sodium current, HEK-293 cells expressing recombinant sodium channels) (Homo sapiens, UniProt Q9UQD0) (assay: Inhibition of ATX-II evoked Nav late current (INaL), PatchXpress electrophysiology). Details: HEK293, compound at 1 μM, late current evoked by ATX-II 300 nM.
T1 construct: expressed in transfected cells; host or cells: HEK-293
Format: cell-based
Procedure: Functional characterization of exemplary compounds to modulate voltage gated sodium currents was accomplished using the PatchXpress™ high throughput electrophysiology platforms (Molecular Devices, Sunnyvale, CA). HEK-293 cells expressing recombinant sodium channels were grown in DMEM/high-glucose Dulbecco's modified, 10% FBS, 2 mM sodium pyruvate, and G418. Nav channel expressing cells were grown to 50%-80% confluency and harvested by trypsinization. Trypsinized cells were washed and resuspended in extracellular buffer at a concentration of 1×10^6 cells/ml. The onboard liquid handling facility of the PatchXpress was used for dispensing cells and application of test compounds. Nav late currents were evoked by the application of ATX-II, 300 nM. Currents were evoked by depolarizing pulses to 0 mV for 200 ms from a non-inactivating holding potential (e.g., −120 mV to −150 mV) at a frequency of 0.1 Hz. Late current amplitude and stability were determined by analyzing the mean current amplitude over the 175-195 msec region of the 200 msec test pulse. Following steady state block with exemplary compounds (e.g., as described herein) at 1 μM, a Na^+ free solution containing an impermeant cation (e.g., Choline or NDMG) was added for determination of the 0 current level. Late current amplitudes for each test condition were determined from the mean of the 175-195 msec region of the 200 msec test pulse. Percent inhibition of steady state currents was calculated as (compound−baseline)/(control−baseline)*100, where control represents INaL recorded in the absence of compound.

T1 sequence (Q9UQD0 whole entry): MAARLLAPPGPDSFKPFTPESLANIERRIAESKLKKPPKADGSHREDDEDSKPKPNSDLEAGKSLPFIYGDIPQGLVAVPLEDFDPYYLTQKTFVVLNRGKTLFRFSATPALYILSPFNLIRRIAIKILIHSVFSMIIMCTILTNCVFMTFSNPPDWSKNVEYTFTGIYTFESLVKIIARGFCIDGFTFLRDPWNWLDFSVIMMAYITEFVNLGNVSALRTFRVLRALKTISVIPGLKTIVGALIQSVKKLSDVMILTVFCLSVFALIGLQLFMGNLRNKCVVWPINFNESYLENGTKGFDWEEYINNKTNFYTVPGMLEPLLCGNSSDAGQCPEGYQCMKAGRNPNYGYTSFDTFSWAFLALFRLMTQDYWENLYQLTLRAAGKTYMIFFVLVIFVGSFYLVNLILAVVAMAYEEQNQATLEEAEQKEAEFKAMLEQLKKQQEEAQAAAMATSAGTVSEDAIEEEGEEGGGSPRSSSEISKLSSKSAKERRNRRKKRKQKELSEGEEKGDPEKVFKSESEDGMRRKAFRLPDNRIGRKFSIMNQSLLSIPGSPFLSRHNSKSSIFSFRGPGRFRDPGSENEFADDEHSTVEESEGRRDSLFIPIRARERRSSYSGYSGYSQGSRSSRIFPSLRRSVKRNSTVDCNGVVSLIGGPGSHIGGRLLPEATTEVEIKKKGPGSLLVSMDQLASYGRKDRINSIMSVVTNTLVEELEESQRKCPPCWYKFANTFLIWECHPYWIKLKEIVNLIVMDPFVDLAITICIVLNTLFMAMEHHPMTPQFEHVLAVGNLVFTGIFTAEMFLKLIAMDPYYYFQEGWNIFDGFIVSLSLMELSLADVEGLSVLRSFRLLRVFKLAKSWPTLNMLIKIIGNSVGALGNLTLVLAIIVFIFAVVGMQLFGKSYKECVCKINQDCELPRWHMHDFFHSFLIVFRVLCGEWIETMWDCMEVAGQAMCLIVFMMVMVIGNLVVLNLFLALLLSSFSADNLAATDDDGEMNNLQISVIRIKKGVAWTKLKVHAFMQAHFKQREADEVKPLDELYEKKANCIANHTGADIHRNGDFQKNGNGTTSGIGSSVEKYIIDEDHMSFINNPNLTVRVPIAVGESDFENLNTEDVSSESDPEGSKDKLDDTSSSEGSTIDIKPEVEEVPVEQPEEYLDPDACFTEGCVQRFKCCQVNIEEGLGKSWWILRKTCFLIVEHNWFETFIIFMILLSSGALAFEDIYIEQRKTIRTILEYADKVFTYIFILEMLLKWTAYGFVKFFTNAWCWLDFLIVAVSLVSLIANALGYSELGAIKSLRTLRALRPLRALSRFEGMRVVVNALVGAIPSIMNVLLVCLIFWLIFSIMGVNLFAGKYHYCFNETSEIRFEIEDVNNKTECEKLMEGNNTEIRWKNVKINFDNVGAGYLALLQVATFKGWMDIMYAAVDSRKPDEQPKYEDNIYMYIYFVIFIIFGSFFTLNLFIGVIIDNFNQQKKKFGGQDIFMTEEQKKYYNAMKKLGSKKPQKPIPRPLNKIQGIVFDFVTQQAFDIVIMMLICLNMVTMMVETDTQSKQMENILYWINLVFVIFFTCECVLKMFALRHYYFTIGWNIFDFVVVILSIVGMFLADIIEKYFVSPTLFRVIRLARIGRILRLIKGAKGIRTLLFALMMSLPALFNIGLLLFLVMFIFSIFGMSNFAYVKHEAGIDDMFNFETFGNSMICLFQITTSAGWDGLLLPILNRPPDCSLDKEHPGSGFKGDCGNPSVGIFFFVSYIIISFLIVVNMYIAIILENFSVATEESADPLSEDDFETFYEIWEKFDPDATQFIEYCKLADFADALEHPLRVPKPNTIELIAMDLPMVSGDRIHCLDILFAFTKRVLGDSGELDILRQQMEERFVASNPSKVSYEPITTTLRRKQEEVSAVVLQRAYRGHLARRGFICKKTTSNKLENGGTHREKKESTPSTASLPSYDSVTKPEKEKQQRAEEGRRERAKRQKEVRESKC

SMILES	inhibition at 1 µM [%]
Fc1cc(-c2ccc3nnc(C(F)F)n3n2)cnc1OCC1CC1(F)F (single isomer, unassigned) [21 (Isomer 1)]	50 to 75
Fc1cc(-c2ccc3nnc(C(F)F)n3n2)cnc1OCC1CC1(F)F (centres unmarked) [Compound 22, 6-[6-[(2,2-difluorocyclopropyl)methoxy]-5-fluoro-3-pyridyl]-3-(difluoromethyl)-[1,2,4]triazolo[4,3-b]pyridazine]	< 50
Cc1cc2nnc(C(F)(F)F)n2nc1-c1ccc(OC(C)(C)C(F)(F)F)nc1 [Compound 51, 7-methyl-6-[6-(2,2,2-trifluoro-1,1-dimethyl-ethoxy)-3-pyridyl]-3-(trifluoromethyl)-[1,2,4]triazolo[4,3-b]pyridazine]	50 to 75
Fc1cc(-c2ccc3nnc(C(F)(F)F)n3n2)cnc1OC1(C(F)(F)F)COC1 [Compound 4, 6-[5-fluoro-6-[3-(trifluoromethyl)oxetan-3-yl]oxy-3-pyridyl]-3-(trifluoromethyl)-[1,2,4]triazolo[4,3-b]pyridazine]	50 to 75
FC(F)c1nnc2cnc(-c3ccc(OC4CC(F)(F)C4)nc3)cn12 [Compound 52, 6-(6-(3,3-difluorocyclobutoxy)pyridin-3-yl)-3-(difluoromethyl)-[1,2,4]triazolo [4,3-a]pyrazine]	50 to 75
Fc1cc(-c2ccc3nnc(C(F)(F)F)n3n2)cnc1OC1CC(F)(F)C1(F)F (centres unmarked) [Compound 26, 6-[5-fluoro-6-(2,2,3,3-tetrafluorocyclobutoxy)-3-pyridyl]-3-(trifluoromethyl)-[1,2,4]triazolo[4,3-b]pyridazine]	> 75
Cc1cc2nnc(C(F)(F)F)n2nc1-c1cnc(OC(C)(C)C(F)(F)F)c(F)c1 [Compound 40, 6-[5-fluoro-6-(2,2,2-trifluoro-1,1-dimethyl-ethoxy)-3-pyridyl]-7-methyl-3-(trifluoromethyl)-[1,2,4]triazolo[4,3-b]pyridazine]	> 75
CC(C)(Oc1ccc(-c2nn3c(C(F)(F)F)nnc3cc2Cl)cn1)C(F)(F)F [Compound 50, 7-chloro-6-[6-(2,2,2-trifluoro-1,1-dimethyl-ethoxy)-3-pyridyl]-3-(trifluoromethyl)-[1,2,4]triazolo[4,3-b]pyridazine]	> 75
Cc1cc2nnc(C(F)(F)F)n2nc1-c1ccc(O[C@H](C)C(F)(F)F)nc1 [Compound 49, (R)-7-methyl-3-(trifluoromethyl)-6-(6-((1,1,1-trifluoropropan-2-yl)oxy)pyridin-3-yl)-[1,2,4]triazolo[4,3-b]pyridazine]	50 to 75
C[C@H](Oc1ncc(-c2nn3c(C(F)(F)F)nnc3cc2Cl)cc1F)C(F)(F)F [Compound 43, 7-chloro-6-[5-fluoro-6-[(1S)-2,2,2-trifluoro-1-methyl-ethoxy]-3-pyridyl]-3-(trifluoromethyl)-[1,2,4]triazolo[4,3-b]pyridazine]	50 to 75
Fc1cc(-c2cn3c(C(F)F)nnc3cn2)cnc1OC1(C(F)(F)F)CCC1 [Compound 9, 3-(difluoromethyl)-6-[5-fluoro-6-[1-(trifluoromethyl)cyclobutoxy]-3-pyridyl]-[1,2,4]triazolo[4,3-a]pyrazine]	> 75
CC(C)(Oc1ncc(-c2ccc3nnc(C4CC4(F)F)n3n2)cc1F)C(F)(F)F (single isomer, unassigned) [11 (Isomer 1)]	> 75
Fc1cc(-c2cn3c(C(F)(F)F)nnc3cn2)cnc1OC1CC(F)(F)C1(F)F (centres unmarked) [Compound 33, 6-[5-fluoro-6-(2,2,3,3-tetrafluorocyclobutoxy)-3-pyridyl]-3-(trifluoromethyl)-[1,2,4]triazolo[4,3-a]pyrazine]	> 75
Cc1cc2nnc(C(F)(F)F)n2nc1-c1ccc(O[C@@H](C)C(F)(F)F)nc1 [Compound 48, (S)-7-methyl-3-(trifluoromethyl)-6-(6-((1,1,1-trifluoropropan-2-yl)oxy)pyridin-3-yl)-[1,2,4]triazolo[4,3-b]pyridazine]	> 75
Fc1cc(-c2ccc3nnc(C(F)(F)F)n3n2)cnc1OCC1CC1(F)F (single isomer, unassigned) [23 (Isomer 1)]	50 to 75
Fc1cc(-c2ccc3nnc(C(F)(F)F)n3n2)cnc1OC1(C(F)(F)F)CCC1 [Compound 6, 6-[5-fluoro-6-[1-(trifluoromethyl)cyclobutoxy]-3-pyridyl]-3-(trifluoromethyl)-[1,2,4]triazolo[4,3-b]pyridazine]	> 75
CC(C)(Oc1ncc(-c2ccc3nnc(C(F)(F)F)n3n2)cc1F)C(F)(F)F [Compound 34, 6-[5-fluoro-6-(2,2,2-trifluoro-1,1-dimethyl-ethoxy)-3-pyridyl]-3-(trifluoromethyl)-[1,2,4]triazolo[4,3-b]pyridazine]	> 75
CC(C)(Oc1ncc(-c2ccc3nnc(C4CC4(F)F)n3n2)cc1F)C(F)(F)F (centres unmarked) [Compound 12, 3-(2,2-difluorocyclopropyl)-6-[5-fluoro-6-(2,2,2-trifluoro-1,1-dimethyl-ethoxy)-3-pyridyl]-[1,2,4]triazolo[4,3-b]pyridazine]	> 75
Fc1cc(-c2cn3c(C(F)(F)F)nnc3cn2)cnc1OC1(C(F)(F)F)CCC1 [Compound 7, 6-[5-fluoro-6-[1-(trifluoromethyl)cyclobutoxy]-3-pyridyl]-3-(trifluoromethyl)-[1,2,4]triazolo[4,3-a]pyrazine]	> 75

The remaining lines, values ahead:

inhibition at 1 µM [%]	SMILES
> 75	Fc1cc(-c2cn3c(C(F)(F)F)nnc3cn2)cnc1OC1CC(F)(F)C1(F)F (single isomer, unassigned) [32 (Isomer 1)]
50 to 75	CC(C)(Oc1ncc(-c2cn3c(C4CC(F)(F)C4)nnc3cn2)cc1F)C(F)(F)F [Compound 8, 3-(3,3-difluorocyclobutyl)-6-[5-fluoro-6-(2,2,2-trifluoro-1,1-dimethyl-ethoxy)-3-pyridyl]-[1,2,4]triazolo[4,3-a]pyrazine]
> 75	C[C@H](Oc1ncc(-c2ccc3nnc(C(F)F)n3n2)cc1F)C(F)(F)F [Compound 15, 3-(difluoromethyl)-6-[5-fluoro-6-[(1S)-2,2,2-trifluoro-1-methyl-ethoxy]-3-pyridyl]-[1,2,4]triazolo[4,3-b]pyridazine]
50 to 75	C[C@H](Oc1ncc(-c2cn3c(C4CC(F)(F)C4)nnc3cn2)cc1F)C(F)(F)F [Compound 19, 3-(3,3-difluorocyclobutyl)-6-[5-fluoro-6-[(1S)-2,2,2-trifluoro-1-methyl-ethoxy]-3-pyridyl]-[1,2,4]triazolo[4,3-a]pyrazine]
> 75	C[C@@H](Oc1ncc(-c2ccc3nnc(C(F)F)n3n2)cc1F)C(F)(F)F [Compound 17, 3-(difluoromethyl)-6-[5-fluoro-6-[(1R)-2,2,2-trifluoro-1-methyl-ethoxy]-3-pyridyl]-[1,2,4]triazolo[4,3-b]pyridazine]
< 50	Fc1cc(-c2cn3c(C(F)(F)F)nnc3cn2)cnc1OC1(C(F)(F)F)COC1 [Compound 2, 6-[5-fluoro-6-[3-(trifluoromethyl)oxetan-3-yl]oxy-3-pyridyl]-3-(trifluoromethyl)-[1,2,4]triazolo[4,3-a]pyrazine]
50 to 75	Cc1c(-c2cnc(O[C@@H](C)C(F)(F)F)c(F)c2)ncc2nnc(C(F)(F)F)n12 [Compound 38, 6-[5-fluoro-6-[(1S)-2,2,2-trifluoro-1-methyl-ethoxy]-3-pyridyl]-5-methyl-3-(trifluoromethyl)-[1,2,4]triazolo[4,3-a]pyrazine]
< 50	C[C@@H](Oc1ncc(-c2cn3c(C4CC4(F)F)nnc3cn2)cc1F)C(F)(F)F (single isomer, unassigned) [16 (Isomer 1)]
> 75	CC(C)(Oc1ncc(-c2cn3c(C(F)(F)F)nnc3cn2)cc1F)C(F)(F)F [Compound 3, 6-[5-fluoro-6-(2,2,2-trifluoro-1,1-dimethyl-ethoxy)-3-pyridyl]-3-(trifluoromethyl)-[1,2,4]triazolo[4,3-a]pyrazine]
50 to 75	Fc1cc(-c2cn3c(C(F)(F)F)nnc3cn2)cnc1OCC1CC1(F)F (single isomer, unassigned) [28 (Isomer 1)]
< 50	CC(C)(Oc1ncc(-c2cn3c(C4CC4(F)F)nnc3cn2)cc1F)C(F)(F)F (single isomer, unassigned) [13 (Isomer 1)]
< 50	C[C@H](Oc1ncc(-c2cn3c(C4CC4(F)F)nnc3cn2)cc1F)C(F)(F)F (single isomer, unassigned) [18 (Isomer 1)]

Same assay, conditions: compound at 1 μM, late current evoked by ATX-II 300 nM

INaL v1.6 % Inhibition	SMILES
B (inhibition of 50% to 75%)	C[C@H](Oc1ncc(-c2cn3c(C4CC4(F)F)nnc3cn2)cc1F)C(F)(F)F (single isomer, unassigned) [18 (Isomer 2)]
B (inhibition of 50% to 75%)	CC(C)(Oc1ncc(-c2cn3c(C4CC4(F)F)nnc3cn2)cc1F)C(F)(F)F (single isomer, unassigned) [13 (Isomer 2)]
A (inhibition of less than 50%)	Fc1cc(-c2ccc3nnc(C(F)F)n3n2)cnc1OCC1CC1(F)F (single isomer, unassigned) [21 (Isomer 2)]
B (inhibition of 50% to 75%)	C[C@@H](Oc1ncc(-c2cn3c(C4CC4(F)F)nnc3cn2)cc1F)C(F)(F)F (single isomer, unassigned) [16 (Isomer 2)]

From patent publication US12344615B2, “Substituted pyridines as ion channel modulators” (PRAXIS PRECISION MEDICINES, INC., priority 2019, dated 2025)
